# Measurements as given in ChEMBL document CHEMBL4819016, “2-Propargylamino-naphthoquinone derivatives as multipotent agents for the treatment of Alzheimer's disease” (Eur J Med Chem, 2021).
# Active and inactive are the calls of the source. No cut-off for these calls is given here.
# Key:
# [1] = molecular target: Amyloid-beta precursor protein (Homo sapiens) (UniProt P05067); assay: Inhibition of HFIP-pretreated amyloid beta (1 to 42) (unknown origin) self aggregation at 50 uM measured every 10 mins for 72 hrs by Thioflavin T flourimetric assay relative to control
# [2] = Permeability of compound at pH 7.4 measured after 6 hrs by PAMPA assay
# SH-SY5Y = assay: Cytotoxicity against human SH-SY5Y cells measured after 24 hrs by MTT assay; format: functional, cell-based
# [3] = Cytotoxicity against mouse SIM-A9 cells measured after 24 hrs by MTT assay; format: functional, cell-based; details: SIM-A9, 24 h
# [4] = Cytotoxicity against mouse SIM-A9 cells assessed as non-toxic concentration measured after 24 hrs by MTT assay; format: functional
# [5] = Anti-inflammatory activity in mouse SIM-A9 cells assessed as decrease in LPS-induced IL-6 production at 1 ug/ml preincubated for 1 hr followed by stimulation with LPS and measured after 23 hrs by ELISA assay; format: functional; parameters: scale not given: the % may be the effect or the level left; details: dose 1 µg/ml; time 24 hrs
# [6] = Anti-inflammatory activity in mouse SIM-A9 cells assessed as decrease in LPS-induced TNF-alpha production at 1 ug/ml preincubated for 1 hr followed by stimulation with LPS and measured after 23 hrs by ELISA assay; format: functional; parameters: scale not given: the % may be the effect or the level left; details: dose 1 µg/ml; time 24 hrs
# [7] = molecular target: T1, Amine oxidase [flavin-containing] B (Homo sapiens, UniProt P27338); assay: Non-covalent inhibition of human MAO-B using Kynuramine as substrate measured upto 60 mins by plate reader method; details: 1 h
# T1 sequence (P27338 whole entry): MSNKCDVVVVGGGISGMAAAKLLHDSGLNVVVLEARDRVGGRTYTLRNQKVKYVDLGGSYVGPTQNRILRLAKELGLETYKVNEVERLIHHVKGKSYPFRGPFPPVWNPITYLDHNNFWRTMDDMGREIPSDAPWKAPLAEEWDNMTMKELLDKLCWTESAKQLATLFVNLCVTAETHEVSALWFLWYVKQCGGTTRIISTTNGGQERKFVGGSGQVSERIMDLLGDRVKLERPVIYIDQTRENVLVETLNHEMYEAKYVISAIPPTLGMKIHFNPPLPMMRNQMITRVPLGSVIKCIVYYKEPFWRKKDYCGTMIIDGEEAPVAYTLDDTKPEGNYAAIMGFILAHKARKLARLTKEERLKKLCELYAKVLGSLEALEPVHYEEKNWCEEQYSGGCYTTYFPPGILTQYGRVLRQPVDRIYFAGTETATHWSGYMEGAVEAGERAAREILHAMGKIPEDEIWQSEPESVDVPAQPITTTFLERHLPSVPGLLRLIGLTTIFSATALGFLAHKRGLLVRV
# [8] = molecular target: T2, Amine oxidase [flavin-containing] A (Homo sapiens, UniProt P21397); assay: Inhibition of human MAO-A preincubated for 5 mins followed by addition of Kynuramine substrate and measured after 30 mins by plate reader method
# T2 sequence (P21397 whole entry): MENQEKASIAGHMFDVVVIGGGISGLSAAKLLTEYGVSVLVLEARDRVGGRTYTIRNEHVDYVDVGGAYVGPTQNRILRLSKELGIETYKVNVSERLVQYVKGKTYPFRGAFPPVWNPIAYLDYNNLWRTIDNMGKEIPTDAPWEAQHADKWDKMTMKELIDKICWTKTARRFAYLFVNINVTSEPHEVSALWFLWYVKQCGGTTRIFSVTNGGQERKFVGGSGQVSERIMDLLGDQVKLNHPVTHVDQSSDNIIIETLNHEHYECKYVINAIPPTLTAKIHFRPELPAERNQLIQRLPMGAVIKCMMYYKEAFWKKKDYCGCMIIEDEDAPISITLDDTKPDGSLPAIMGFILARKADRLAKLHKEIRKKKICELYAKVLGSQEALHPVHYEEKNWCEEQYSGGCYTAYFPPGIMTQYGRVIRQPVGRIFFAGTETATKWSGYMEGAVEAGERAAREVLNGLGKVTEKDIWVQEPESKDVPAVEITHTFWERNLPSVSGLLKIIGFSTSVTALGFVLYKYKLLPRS
# [9] = molecular target: T1, Amine oxidase [flavin-containing] B; assay: Inhibition of human MAO-B preincubated for 5 mins followed by addition of Kynuramine substrate and measured after 30 mins by plate reader method
# Homo sapiens = species on record: Homo sapiens; assay: Selectivity index, ratio of IC50 for human MAO-A to IC50 for human MAO-B using Kynuramine as substrate measured by plate reader method
# [10] = molecular target: T1, Amine oxidase [flavin-containing] B; assay: Reversible inhibition of human MAO-B using Kynuramine as substrate at pH 7 measured after 30 mins by plate reader method; details: pH 7, 0.5 h
# [11] = molecular target: T1, Amine oxidase [flavin-containing] B; assay: Mixed inhibition of human MAO-B assessed as increase of Km with decrease of Vmax using Kynuramine at 0.3 to 2 uM measured after 30 mins by plate reader method; details: 0.5 h, dose 0.3-2 µM
# [12] = molecular target: T1, Amine oxidase [flavin-containing] B; assay: Mixed inhibition of human MAO-B using Kynuramine as substrate measured upto 60 mins by plate reader method; details: 1 h
# [13] = molecular target: T1, Amine oxidase [flavin-containing] B; assay: Competitive inhibition of human MAO-B assessed as increase of Km with constant Vmax using Kynuramine at 0.05 to 0.2 uM measured after 30 mins by plate reader method; details: 0.5 h, dose 0.05-0.2 µM
# [14] = Metal chelating activity assessed as compound-Cu2+ complex formation measured by EPR-spectroscopy; format: functional
# [15] = Radical scavenging activity of compound measured after 15 mins by ABTS radical scavenging activity in relative to clioquinol; format: functional
# [16] = Radical scavenging activity of compound in presence of Cu+2 measured after 15 mins by ABTS radical scavenging activity in relative to clioquinol; format: functional
# [17] = Anti-inflammatory activity in mouse SIM-A9 cells assessed as decrease in LPS-induced IL-6 production at 8 uM preincubated for 1 hr followed by stimulation with LPS and measured after 23 hrs by ELISA assay; format: functional; parameters: scale not given: the % may be the effect or the level left; details: time 24 hrs
# [18] = Anti-inflammatory activity in mouse SIM-A9 cells assessed as decrease in LPS-induced IL-6 production at 4 uM preincubated for 1 hr followed by stimulation with LPS and measured after 23 hrs by ELISA assay; format: functional; parameters: scale not given: the % may be the effect or the level left; details: time 24 hrs
# [19] = Anti-inflammatory activity in mouse SIM-A9 cells assessed as decrease in LPS-induced IL-6 production at 2 uM preincubated for 1 hr followed by stimulation with LPS and measured after 23 hrs by ELISA assay; format: functional; parameters: scale not given: the % may be the effect or the level left; details: time 24 hrs
# [20] = Anti-inflammatory activity in mouse SIM-A9 cells assessed as decrease in LPS-induced TNF-alpha production at 8 uM preincubated for 1 hr followed by stimulation with LPS and measured after 23 hrs by ELISA assay; format: functional; parameters: scale not given: the % may be the effect or the level left; details: time 24 hrs
# [21] = Anti-inflammatory activity in mouse SIM-A9 cells assessed as decrease in LPS-induced TNF-alpha production at 4 uM preincubated for 1 hr followed by stimulation with LPS and measured after 23 hrs by ELISA assay; format: functional; parameters: scale not given: the % may be the effect or the level left; details: time 24 hrs
# [22] = Anti-inflammatory activity in mouse SIM-A9 cells assessed as decrease in LPS-induced TNF-alpha production at 2 uM preincubated for 1 hr followed by stimulation with LPS and measured after 23 hrs by ELISA assay; format: functional; parameters: scale not given: the % may be the effect or the level left; details: time 24 hrs
# [23] = Toxicity in human SH-SY5Y cells assessed by intracellular dehydrogenase activity at 10 uM measured after 24 hrs by WST-1 assay; format: cell-based; details: read-out: Activity
# [24] = Toxicity in human SH-SY5Y cells assessed by intracellular dehydrogenase activity at 100 uM measured after 24 hrs by WST-1 assay; format: cell-based; details: read-out: Activity
# [25] = Toxicity in human SH-SY5Y cells assessed by glutathione depletion at 10 uM measured after 24 hrs by monochlorobimane based plate reader assay; format: cell-based
# [26] = Toxicity in human SH-SY5Y cells assessed by changes in mitochondrial membrane potential at 0.1 to 100 uM measured after 24 hrs by JC-1 probe based fluorescence reader assay; format: cell-based; details: dose 0.1-100 µM
# [27] = Toxicity in human SH-SY5Y cells assessed as change in respiratory states by measuring ROUTINE at 0.1 to 100 uM measured after 24 hrs by respirometer; format: cell-based; details: dose 0.1-100 µM
# [28] = Toxicity in human SH-SY5Y cells assessed as change in respiratory states by measuring LEAK at 0.1 to 100 uM measured after 24 hrs by respirometer; format: cell-based; details: dose 0.1-100 µM
# [29] = Toxicity in human SH-SY5Y cells assessed as change in respiratory states by measuring ETS at 0.1 to 100 uM measured after 24 hrs by respirometer; format: cell-based; details: dose 0.1-100 µM
# [30] = Toxicity in human SH-SY5Y cells assessed as change in respiratory states by measuring ROX at 0.1 to 100 uM measured after 24 hrs by respirometer; format: cell-based; details: dose 0.1-100 µM
# Amyloid-beta precursor protein (Homo sapiens), sequence (P05067 whole entry): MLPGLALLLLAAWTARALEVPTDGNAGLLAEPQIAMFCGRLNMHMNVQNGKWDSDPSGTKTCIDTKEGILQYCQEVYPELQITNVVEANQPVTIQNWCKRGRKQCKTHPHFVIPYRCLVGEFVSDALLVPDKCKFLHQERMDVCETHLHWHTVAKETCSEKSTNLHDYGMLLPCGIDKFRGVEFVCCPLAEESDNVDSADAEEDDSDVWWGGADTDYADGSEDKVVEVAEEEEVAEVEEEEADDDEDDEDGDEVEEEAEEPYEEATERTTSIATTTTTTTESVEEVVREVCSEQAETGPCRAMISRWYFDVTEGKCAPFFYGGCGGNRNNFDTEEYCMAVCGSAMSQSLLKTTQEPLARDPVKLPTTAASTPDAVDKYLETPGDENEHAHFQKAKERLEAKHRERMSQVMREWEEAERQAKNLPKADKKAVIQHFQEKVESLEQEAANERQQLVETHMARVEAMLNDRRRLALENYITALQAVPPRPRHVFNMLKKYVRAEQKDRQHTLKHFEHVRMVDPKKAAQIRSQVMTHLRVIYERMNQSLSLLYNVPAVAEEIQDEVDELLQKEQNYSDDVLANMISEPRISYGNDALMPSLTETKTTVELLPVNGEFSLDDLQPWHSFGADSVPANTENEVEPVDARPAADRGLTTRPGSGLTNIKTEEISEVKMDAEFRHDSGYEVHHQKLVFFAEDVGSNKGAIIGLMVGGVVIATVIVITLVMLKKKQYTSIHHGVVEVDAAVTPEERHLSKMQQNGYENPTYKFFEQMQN
SMILES,inhibition [1] [%],Papp at 6 h [2] [×10⁻⁶ cm/s],IC50 [8] [µM],IC50 [9] [µM],Selectivity Index (Homo sapiens),IC50 (SH-SY5Y) [µM],IC50 [3] [µM],MNTD [4] [µM],further results
C#CCNC1=CC(=O)c2cccc(OCC)c2C1=O,11.2,18.5,–,–,–,> 64,> 64,32,–
C[C@@H]1C[C@H]2[C@@H]3CCC4=CC(=O)C=C[C@]4(C)[C@@]3(F)[C@@H](O)C[C@]2(C)[C@@]1(O)C(=O)CO [DEXAMETHASONE],–,–,–,–,–,–,–,–,Activity [5]: 40%; Activity [6]: 60%
CNC(=C[N+](=O)[O-])NCCSCc1ccc(CN(C)C)o1 [RANITIDINE],–,0.04,–,–,–,–,–,–,–
C#CCNC1=CC(=O)c2cccc(OCc3ccccc3)c2C1=O,17.5,25.5,–,–,–,> 64,> 32,8,"Activity [17]: 49%; Activity [18]: 74%; Activity [19]: 95%; Activity [20]: 46%; Activity [21]: 74%; Activity [22]: 76%; viability at 24 h, 10 µM [23]: 89%; viability at 24 h, 100 µM [24]: 88%; Activity [25]: 89%; Activity [26]: Non-Toxic; Activity [27]: Non-Toxic; Activity [14]: Active; Activity [15]: 15%; Activity [16]: 10%; Activity [28]: Non-Toxic; Activity [29]: Non-Toxic; Activity [30]: Non-Toxic"
C#CCNC1=CC(=O)c2c(O)ccc(O)c2C1=O,21.7,43.3,–,–,–,15,5.3,0.4,–
C[C@H]1c2cccc(O)c2C(=O)C2=C(O)[C@]3(O)C(=O)C(C(N)=O)=C(O)[C@@H](N(C)C)[C@@H]3[C@@H](O)[C@@H]21,93.1,–,–,–,–,–,–,–,–

# Now from value to molecule, other results behind:
inhibition [1] [%],Papp at 6 h [2] [×10⁻⁶ cm/s],IC50 [8] [µM],IC50 [9] [µM],Selectivity Index (Homo sapiens),SMILES,IC50 (SH-SY5Y) [µM],IC50 [3] [µM],MNTD [4] [µM],further results
15.5,18.8,–,–,–,C#CCNC1=CC(=O)c2cccc(OC)c2C1=O,> 32,116,8,–
24,20.8,9.81,0.27,36,C#CCNC1=CC(=O)c2ccccc2C1=O,> 64,34.6,4,inhibition (INH) [7]: Active; inhibition (INH) [10]: Active; inhibition (INH) [11]: Active
67.4,18.5,6.64,8.62,0.77,C#CCN(C)C1=CC(=O)c2ccccc2C1=O,22,36.1,8,–
18.4,29.4,7.76,0.05,155,C#CCNC1=C(Cl)C(=O)c2ccccc2C1=O,4.6,10.4,4,inhibition (INH) [12]: Active; inhibition (INH) [13]: Active; Activity [14]: Active; Activity [15]: Active
40.5,14,10,0.14,71,C#CCN(C)C1=C(Cl)C(=O)c2ccccc2C1=O,3.3,7.3,2,Activity [14]: Active; Activity [15]: Active; Activity [16]: 5%
